The results in this text go back to patent US20060079696A1, “Substituted compounds derived from N-(benzyl)phenylacetamide, preparation and uses” (GENFIT, priority 2004, published 2006).

Common to all, as to format: cell-based
One experiment concerns the target T1, hPPARγ (Homo sapiens, UniProt P37231).
T1 construct: fragments of DNA amplified by PCR corresponding to the DEF domains of the human PPARα, PPARγ PPARδ nuclear receptors; expressed in transfected cells; host or cells: COS-7 (monkey kidney fibroblast line)
T1 sequence (P37231 238-503 limits assumed): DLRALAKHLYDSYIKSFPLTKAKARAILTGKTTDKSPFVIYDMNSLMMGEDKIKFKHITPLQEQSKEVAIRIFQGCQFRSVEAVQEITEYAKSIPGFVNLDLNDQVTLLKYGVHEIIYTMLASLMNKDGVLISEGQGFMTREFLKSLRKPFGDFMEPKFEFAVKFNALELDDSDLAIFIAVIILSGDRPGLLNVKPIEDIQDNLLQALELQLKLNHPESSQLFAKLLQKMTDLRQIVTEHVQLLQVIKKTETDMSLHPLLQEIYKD
As to the kind of experiment: Gal4-hPPARγ chimera transactivation in COS-7 cells (luciferase). The following applies: induction factor standardised to an internal reference, read-out: % hGal4-PPAR transactivation (10 μM) gamma. The method, then: (§1) The PPAR activation was evaluated in vitro on a monkey kidney fibroblast line (COS-7) by measuring the transcriptional activity of chimeras constituted of the DNA binding domain of the Gal4 transcription factor of yeast and of the binding domain to the ligand of the different PPARs. The compounds were tested at doses between 0.01 and 100 μM on Gal4-PPARα, γ, δ chimeras. The induction factor (ratio between the luminescence induced by the compound and the luminescence induced by the control) was measured for each condition: the higher this factor, the more the compound has PPAR-activating properties.
(§2) The COS-7 cells from ATCC were cultivated in a DMEM medium supplemented with 10% (vol/vol) of foetal calf serum, 100 U/ml penicillin (Gibco, Paisley, UK) and 2 mM L-Glutamine (Gibco, Paisley, UK). The cells were incubated at 37° C. in a humid atmosphere containing 5% CO2.
(§3) The Gal4(RE)_TkpGL3, pGal4-hPPARα, pGal4-hPPARγ, pGal4-hPPARδ and pGal4-φ plasmids have been described in the literature (Raspe, Madsen et al. 1999). The pGal4-hPPARα, pGal4-hPPARγ and pGal4-hPPARδ constructs were obtained by cloning in the pGal4-φ vector of fragments of DNA amplified by PCR corresponding to the DEF domains of the human PPARα, PPARγ PPARδ nuclear receptors.
(§4) COS-7 cells were plated in 96 wells plates (5×10^4 cells/well) and transfected, in the presence of 10% foetal calf serum and 150 ng DNA per well, with a pGal4-PPAR/Gal4(RE)_TkpGL3 ratio of 1/10. The cells were then incubated for 24 hours with the compounds to be tested, without serum. At the end of the experiment, the cells were lysed and the luciferase activities were determined by means of Steady Glow Luciferase (Promega) according to the supplier's recommendations.
(§5) The inventive compounds were tested at 10 μM on the 3 PPAR isoforms. The results obtained are detailed in table (1). The transactivation measured is expressed as a response ratio versus an internal reference for each of the isoforms.
(§6) The compounds were tested at 10 μM on the Gal4-PPARα, γ, δ chimeras. The induction factor, i.e. the ratio between the luminescence induced by the compound and the luminescence induced by the control, was measured for each condition. It was then standardised in comparison to an internal reference and the results were then expressed in percentages : the higher the activation percentage, the more the compound has PPAR-activating properties.

The target in another experiment is T2, hPPARδ (Homo sapiens, UniProt Q03181).
T2 construct: fragments of DNA amplified by PCR corresponding to the DEF domains of the human PPARα, PPARγ PPARδ nuclear receptors; expressed in transfected cells; host or cells: COS-7 (monkey kidney fibroblast line)
T2 sequence (Q03181 211-439 limits assumed): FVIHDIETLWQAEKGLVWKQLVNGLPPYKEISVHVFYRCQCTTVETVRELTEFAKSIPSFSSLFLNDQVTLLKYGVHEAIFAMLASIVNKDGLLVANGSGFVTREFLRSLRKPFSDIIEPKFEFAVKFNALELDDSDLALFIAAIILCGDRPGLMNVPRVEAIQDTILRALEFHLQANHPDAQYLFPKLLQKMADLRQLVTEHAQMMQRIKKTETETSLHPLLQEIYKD
As to the kind of experiment: Gal4-hPPARδ chimera transactivation in COS-7 cells (luciferase). The following applies: induction factor standardised to an internal reference, read-out: % hGal4-PPAR transactivation (10 μM) delta. The method, then: as §1, §2, §3, §4, §5, §6

The next experiment has as its target T3, hPPARα (Homo sapiens, UniProt Q07869).
T3 construct: fragments of DNA amplified by PCR corresponding to the DEF domains of the human PPARα, PPARγ PPARδ nuclear receptors; expressed in transfected cells; host or cells: COS-7 (monkey kidney fibroblast line)
T3 sequence (Q07869 239-466 limits assumed): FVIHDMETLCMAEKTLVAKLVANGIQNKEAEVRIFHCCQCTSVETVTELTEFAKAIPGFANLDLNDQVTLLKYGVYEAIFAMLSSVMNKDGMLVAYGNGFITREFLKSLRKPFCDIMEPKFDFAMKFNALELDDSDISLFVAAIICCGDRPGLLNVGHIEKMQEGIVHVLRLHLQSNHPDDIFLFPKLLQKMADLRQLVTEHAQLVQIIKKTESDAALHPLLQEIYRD
Briefly: Gal4-hPPARα chimera transactivation in COS-7 cells (luciferase). The following applies: induction factor standardised to an internal reference, read-out: % hGal4-PPAR transactivation (10 μM) alpha. The method, then:
as §1, §2, §3, §4, §5, §6

Regarding `CC(NC(=O)Cc1ccc(OC(C)(C)C(=O)O)cc1)c1ccccc1N1CCCCC1` (stereo not drawn) [Compound 2, 2-[4-[1-(1-(2-(1-piperidinyl)phenyl)ethyl)aminocarbonylmethyl]phenoxy]-2-methylpropanoic acid], the activation at 10 µM at hPPARγ was 27%; on hPPARδ, less than 10%; on hPPARα it was less than 10%.

As for `CCCCCCC(NC(=O)Cc1ccc(OC(C)(C)C(=O)O)cc1)c1ccccc1N1CCCCC1` (stereo not drawn) [Compound 5, 2-[4-[1-(1-(2-(1-piperidinyl)phenyl)heptyl)aminocarbonylmethyl]phenoxy]-2-methylpropanoic acid], the results for the activation at 10 µM on hPPARγ, on hPPARδ and at hPPARα were 82%, less than 10% and 31%, respectively.

As to `Cc1cc(CC(=O)NC(CC(C)C)c2ccccc2N2CCCCC2)cc(C)c1OC(C)(C)C(=O)O` (stereo not drawn) [Compound 11, 2-[2,6-dimethyl-4-[1-(3-methyl-1-(2-(1-piperidinyl)phenyl)butyl)aminocarbonylmethyl]phenoxy]-2-methylpropanoic acid], the activation at 10 µM at hPPARγ was 47%; on hPPARδ it was less than 10%; at hPPARα, less than 10%.

As for `CC(NC(=O)Cc1ccc(OC(C)(C)C(=O)O)cc1)c1ccccc1N1CCCCCC1` (stereo not drawn) [Compound 15, 2-[4-[1-(1-(2-(1-hexamethyleneimino)phenyl)ethyl)aminocarbonylmethyl]phenoxy]-2-methylpropanoic acid], the activation at 10 µM on hPPARγ is 42%; on hPPARδ it was less than 10%; on hPPARα it was less than 10%.

Consider `CCCCC(NC(=O)Cc1ccc(OC(C)(C)C(=O)O)cc1)c1ccc(-n2ccc3ccccc32)cc1N1CCCCC1` (stereo not drawn) [Compound 38, 2-[4-[1-(1-(2-(1-piperidinyl)-4-(1H-indolyl)phenyl)pentyl)aminocarbonylmethyl]phenoxy]-2-methylpropanoic acid], for which the activation at 10 µM is less than 10% on hPPARγ, 18% on hPPARδ and 13% at hPPARα.

For `CC(C)CC(NC(=O)Cc1ccc(OCCCCOc2ccc(OC(C)(C)C(=O)O)cc2)cc1)c1ccccc1N1CCCCC1` (stereo not drawn) [Compound 40, 2-{4-{4-[4-[1-(3-methyl-1-(2-(1-piperidinyl)phenyl)butyl)aminocarbonylmethyl]phenoxy]butoxy}phenoxy}-2-methylpropanoic acid], the values for the activation at 10 µM at hPPARγ, at hPPARδ and at hPPARα were 55%, less than 10% and 20%, respectively.

On to `CCCCC(NC(=O)Cc1ccc(OCC(C)(C)C(=O)O)cc1)c1ccccc1N1CCCCC1` (stereo not drawn) [Compound 42, 3-[4-[1-(1-(2-(1-piperidinyl)phenyl)pentyl)aminocarbonylmethyl]phenoxy]-2,2-dimethylpropanoic acid], for which the activation at 10 µM on hPPARγ was less than 10%; at hPPARδ, less than 10%; on hPPARα, 32%.

`CCCCC(NC(=O)Cc1ccc(OC(C)(C)C(=O)O)cc1)c1ccccc1N1C[C@H](C)C[C@H](C)C1` (stereo partly drawn) [Compound 43, 2-[4-[1-(1-(2-((3S,5R)-3,5-dimethylpiperidine-1-yl)phenyl)pentyl)aminocarbonylmethyl]phenoxy]-2-methylpropanoic acid]: the activation at 10 µM on hPPARγ was 18%; at hPPARδ it was less than 10%; at hPPARα, 27%.

Take `CCN(CCCC(C)(C)C(=O)O)c1ccc(CC(=O)NC(CC(C)C)c2ccccc2N2CCCCC2)cc1` (stereo not drawn) [Compound 46, 5-{N-ethyl-N-[4-[1-(3-methyl-1-(2-(1-piperidinyl)phenyl)butyl)aminocarbonylmethyl]phenyl]amino}-2,2-dimethylpentanoic acid]: the figures for the activation at 10 µM on hPPARγ, on hPPARδ and on hPPARα were 12%, less than 10% and 58%, respectively.

Regarding `CCCCC(NC(=O)Cc1ccc(OCCCC(Cl)(Cl)C(=O)O)cc1)c1ccccc1N1CCCCC1` (stereo not drawn) [Compound 47, 5-[4-[1-(1-(2-(1-piperidinyl)phenyl)pentyl)aminocarbonylmethyl]phenoxy]-2,2-dichloropentanoic acid], the activation at 10 µM on hPPARγ was less than 10%; at hPPARδ, less than 10%; on hPPARα it was 42%.

As to `COc1ccc(CC(NC(=O)Cc2ccc(OC(C)(C)C(=O)O)cc2)c2ccccc2N2CCCCC2)cc1` (stereo not drawn) [Compound 48, 2-[4-[1-(2-(4-methoxyphenyl)-1-(2-(1-piperidinyl)phenyl)ethyl)aminocarbonylmethyl]phenoxy]-2-methylpropanoic acid], the activation at 10 µM at hPPARγ is 17%; on hPPARδ, less than 10%; at hPPARα, less than 10%.

For the compound `CCCCC(NC(=O)Cc1ccc(OC(C)(C)C(=O)O)cc1)c1ccc(CCc2ccccc2)cc1N1CCCCC1` (stereo not drawn) [Compound 50, 2-[4-[1-(1-(2-(1-piperidinyl)-4-(phenethyl)phenyl)pentyl)aminocarbonylmethyl]phenoxy]-2-methylpropanoic acid], the activation at 10 µM on hPPARγ is less than 10%; on hPPARδ, 11%; at hPPARα it was less than 10%.

In the case of `CCCC(NC(=O)Cc1ccc(OC(C)(C)C(=O)NS(C)(=O)=O)cc1)c1ccccc1N1CCCCC1` (stereo not drawn) [Compound 66, N-[methylsulfonyl]-2-[4-[1-(1-(2-(1-piperidinyl)phenyl)butyl)aminocarbonylmethyl]phenoxy]-2-methylpropanamide], the activation at 10 µM on hPPARγ was less than 10%; on hPPARδ, less than 10%; on hPPARα, 40%.

For `CCCCC(NC(=O)Cc1ccc(OC(C)(C)C(=O)NS(C)(=O)=O)cc1)c1ccccc1OC` (stereo not drawn) [Compound 67, N-[methylsulfonyl]-2-[4-[1-(1-(2-(methoxy)phenyl)pentyl)aminocarbonylmethyl]phenoxy]-2-methylpropanamide], the activation at 10 µM on hPPARγ, at hPPARδ and on hPPARα was less than 10% throughout.

Turning to `CCCCC(NC(=O)Cc1ccc(OC(C)(C)C(=O)O)cc1)c1ccccc1OCC(C)C` (stereo not drawn) [Compound 68, 2-[4-[1-(1-(2-(isobutyloxy)phenyl)pentyl)aminocarbonylmethyl]phenoxy]-2-methylpropanoic acid], the activation at 10 µM on hPPARγ was 37%; at hPPARδ it was less than 10%; on hPPARα it was less than 10%.

On to `CCCCC(NC(=O)Cc1ccc(OCc2nnn[nH]2)cc1)c1ccccc1N1CCCCC1` (stereo not drawn) [Compound 70, 2-(4-((1H-tetrazol-5-yl)methoxy)phenyl)-N-[1-(1-(2-(1-piperidinyl)phenyl)pentyl)]acetamide], for which the activation at 10 µM on hPPARγ was 13%; on hPPARδ, less than 10%; at hPPARα it was less than 10%.

Turning to `CCCCC(NC(=O)Cc1ccc(OC(C)(C)C(=O)O)c(OC)c1)c1ccccc1N1CCCCC1` (stereo not drawn) [Compound 73, 2-[2-methoxy-4-[1-(1-(2-(1-piperidinyl)phenyl)pentyl)aminocarbonylmethyl]phenoxy]-2-methylpropanoic acid], the activation at 10 µM on hPPARγ is 42%; on hPPARδ it was less than 10%; on hPPARα it was less than 10%.
